{"source": "patent US20070191480A1", "about": "“Gycol Ether Miticides and Anti-Allergen Treatments” (priority 2004, published 2007)", "key": {"dust mites": {"tested_on": "dust mites", "assay": "Dust mite kill efficacy, submersion method", "format": "in vivo", "settings": "for >50% kill in 30 min.: 8% or saturated solutions in water, dust mites; for 1% HC Solution: time to 100% kill / 1% HC Solution: % kill at 30 min: 1% HC solution with 1% Stepanol WAC; for 1% HC Solution: time to 100% kill: solution pH (6.30-7.26); for 1% HC Solution: time to 100% kill / 1% HC with 7% DPnP Solution: time to 100% kill / 1% HC with 7% DpnP at 9.5 pH: time to 100% kill: maximum 30 minutes; for 1% HC with 7% DPnP Solution: time to 100% kill / 1% HC with 7% DpnP at 9.5 pH: time to 100% kill / 1% HC with 7% DPnP Solution: % kill at 30 min / 1% HC with 7% DpnP at 9.5 pH: % kill at 30 min: 1% Stepanol WAC; for 1% HC with 7% DpnP at 9.5 pH: time to 100% kill / 1% HC with 7% DpnP at 9.5 pH: % kill at 30 min: pH 9.5; for 8% Solution: time to 100% kill: 8% glycol ether/ester in water with 1% Stepanol WAC, mites immersed, maximum time period 30 minutes; for 1% HC Solution: % kill at 30 min: None = no kill", "from_the_text": "To test the efficacy of the cleaning composition containing glycol ether, glycol ether ester, and combinations thereof for their ability to kill dust mites, a submersion method was used. The dust mites were immersed in the following solutions with a 1% or 8% glycol ether, glycol ether ester or a combination thereof. In addition to the glycol ether and or glycol ether ester, the solution also contained about 1% Stepanol® WAC (sodium lauryl sulfate) surfactant and the remainder of the solution was water. The pH of the aqueous solution was maintained between about 5 to 10.\nAfter the dust mites were immersed in the solution they were tested each minute to determine if they were still alive or not. To test if the mites were alive after treatment, they are viewed under a dissecting microscope and poked with a 26-guage needle to induce movement. […] Since sometimes dust mites may appear to-be dead after treatment and then recover a few days later, a treated population and a control sample were placed in a high humidity desiccators and poke tests were conducted over several days following the initial treatment to ensure that the initial reported kill rates were accurate."}, "Vapor pressure": {"assay": "Vapor pressure", "experimental": "The preferred vapor pressure of the solvents is less than about 1 mm Hg at 20° C., and preferably the vapor pressure is less than 0.5 mm Hg at 20° C."}, "[1]": {"assay": "Solubility in water at 20° C."}}, "note": "Where two headings read alike, the source gives them in different places."}
{"molecule": "COCCOCCO", "note": "[Diethylene glycol methyl ether]", "values": [{"measurement": ">50% kill in 30 min.", "setting": "dust mites", "value": "no"}, {"measurement": "Vapor Pressure (mm Hg)", "setting": "Vapor pressure; at 20° C.", "value": 0.2, "unit": "mm Hg"}, {"measurement": "Solubility in water at 20° C.", "setting": "[1]", "value": 100, "unit": "%"}]}
{"molecule": "CCCCCCOCCO", "note": "[Hexyl Cellosolve, ethylene glycol monohexyl ether]", "values": [{"measurement": "1% HC Solution: time to 100% kill", "setting": "dust mites", "value": 15, "unit": "min"}, {"measurement": "1% HC with 7% DPnP Solution: time to 100% kill", "setting": "dust mites", "value": 14, "unit": "min"}, {"measurement": "1% HC with 7% DpnP at 9.5 pH: time to 100% kill", "setting": "dust mites", "value": 26, "unit": "min"}, {"measurement": "8% Solution: time to 100% kill", "setting": "dust mites", "value": 11, "unit": "min"}, {"measurement": ">50% kill in 30 min.", "setting": "dust mites", "value": "Yes"}, {"measurement": "Vapor Pressure (mm Hg)", "setting": "Vapor pressure", "value": "<1.0", "unit": "mm Hg"}]}
{"molecule": "COC(C)COC(C)COC(C)=O", "note": "(stereo not shown) [Dipropylene glycol methyl ether acetate]", "values": [{"measurement": ">50% kill in 30 min.", "setting": "dust mites", "value": "Yes"}, {"measurement": "Vapor Pressure (mm Hg)", "setting": "Vapor pressure", "value": 0.05, "unit": "mm Hg"}]}
{"molecule": "CCCCOCCOCCOC(C)=O", "note": "[Butyl Carbitol Acetate, diethylene glycol n-butyl ether acetate]", "values": [{"measurement": "1% HC Solution: % kill at 30 min", "setting": "dust mites", "value": 50, "unit": "% kill"}, {"measurement": "1% HC with 7% DPnP Solution: % kill at 30 min", "setting": "dust mites", "value": 90, "unit": "% kill"}, {"measurement": "1% HC with 7% DpnP at 9.5 pH: % kill at 30 min", "setting": "dust mites", "value": 80, "unit": "% kill"}, {"measurement": "8% Solution: time to 100% kill", "setting": "dust mites", "value": 20, "unit": "min"}, {"measurement": ">50% kill in 30 min.", "setting": "dust mites", "value": "Yes"}, {"measurement": "Vapor Pressure (mm Hg)", "setting": "Vapor pressure", "value": 0.04, "unit": "mm Hg"}]}
{"molecule": "CCCCOCCOCCO", "note": "[Diethylene glycol n-butyl ether]", "values": [{"measurement": ">50% kill in 30 min.", "setting": "dust mites", "value": "No"}, {"measurement": "Vapor Pressure (mm Hg)", "setting": "Vapor pressure; at 20° C.", "value": 0.02, "unit": "mm Hg"}, {"measurement": "Solubility in water at 20° C.", "setting": "[1]", "value": 100, "unit": "%"}]}
{"molecule": "OCCOc1ccccc1", "note": "[Dowanol Eph, ethylene glycol phenyl ether]", "values": [{"measurement": "1% HC Solution: % kill at 30 min", "setting": "dust mites", "value": 95, "unit": "% kill"}, {"measurement": "1% HC with 7% DPnP Solution: % kill at 30 min", "setting": "dust mites", "value": 95, "unit": "% kill"}, {"measurement": "1% HC with 7% DpnP at 9.5 pH: % kill at 30 min", "setting": "dust mites", "value": 50, "unit": "% kill"}, {"measurement": "8% Solution: time to 100% kill", "setting": "dust mites", "value": 17, "unit": "min"}]}
{"molecule": "CCCOCC(C)O", "note": "(stereo not shown) [Propylene glycol n-propyl ether]", "values": [{"measurement": ">50% kill in 30 min.", "setting": "dust mites", "value": "No"}, {"measurement": "Vapor Pressure (mm Hg)", "setting": "Vapor pressure; at 20° C.", "value": 1.8, "unit": "mm Hg"}, {"measurement": "Solubility in water at 20° C.", "setting": "[1]", "value": 100, "unit": "%"}]}
{"molecule": "CCCCOCC(C)O", "note": "(stereo not shown) [Dowanol PnB, propylene glycol n-butyl ether]", "values": [{"measurement": "1% HC Solution: % kill at 30 min", "setting": "dust mites", "value": "None"}, {"measurement": "1% HC with 7% DPnP Solution: time to 100% kill", "setting": "dust mites", "value": 29, "unit": "min"}, {"measurement": "1% HC with 7% DpnP at 9.5 pH: % kill at 30 min", "setting": "dust mites", "value": 60, "unit": "% kill"}, {"measurement": "8% Solution: time to 100% kill", "setting": "dust mites", "value": 17, "unit": "min"}, {"measurement": ">50% kill in 30 min.", "setting": "dust mites", "value": "Yes"}, {"measurement": "Vapor Pressure (mm Hg)", "setting": "Vapor pressure", "value": 0.62, "unit": "mm Hg"}]}
{"molecule": "CCCOCCO", "note": "[Ethylene glycol n-propyl ether]", "values": [{"measurement": ">50% kill in 30 min.", "setting": "dust mites", "value": "No"}, {"measurement": "Vapor Pressure (mm Hg)", "setting": "Vapor pressure", "value": 1.3, "unit": "mm Hg"}]}
{"molecule": "CCCCOC(C)COC(C)COC(C)CO", "note": "(stereo not shown) [Dowanol TPnB, Tripropylene glycol n-butyl ether]", "values": [{"measurement": "1% HC Solution: % kill at 30 min", "setting": "dust mites", "value": "None"}, {"measurement": "1% HC with 7% DPnP Solution: % kill at 30 min", "setting": "dust mites", "value": 90, "unit": "% kill"}, {"measurement": "1% HC with 7% DpnP at 9.5 pH: % kill at 30 min", "setting": "dust mites", "value": "No kill"}, {"measurement": "8% Solution: time to 100% kill", "setting": "dust mites", "value": 20, "unit": "min"}, {"measurement": ">50% kill in 30 min.", "setting": "dust mites", "value": "Yes"}, {"measurement": "Vapor Pressure (mm Hg)", "setting": "Vapor pressure; at 20° C.", "value": "<0.01", "unit": "mm Hg"}]}
{"molecule": "COCC(C)O", "note": "(stereo not shown) [Propylene glycol methyl ether]", "values": [{"measurement": ">50% kill in 30 min.", "setting": "dust mites", "value": "No"}, {"measurement": "Vapor Pressure (mm Hg)", "setting": "Vapor pressure; at 20° C.", "value": 8.1, "unit": "mm Hg"}, {"measurement": "Solubility in water at 20° C.", "setting": "[1]", "value": 100, "unit": "%"}]}
{"molecule": "CCOCCOCCO", "note": "[Diethylene glycol ethyl ether]", "values": [{"measurement": ">50% kill in 30 min.", "setting": "dust mites", "value": "No"}, {"measurement": "Vapor Pressure (mm Hg)", "setting": "Vapor pressure", "value": 0.12, "unit": "mm Hg"}]}
{"molecule": "CCCCOCCO", "note": "[Ethylene glycol n-butyl ether]", "values": [{"measurement": ">50% kill in 30 min.", "setting": "dust mites", "value": "No"}, {"measurement": "Vapor Pressure (mm Hg)", "setting": "Vapor pressure; at 20° C.", "value": 0.6, "unit": "mm Hg"}]}
{"molecule": "CCCOC(C)COC(C)CO", "note": "(stereo not shown) [Dipropylene glycol n-propyl ether]", "values": [{"measurement": ">50% kill in 30 min.", "setting": "dust mites", "value": "No"}, {"measurement": "Vapor Pressure (mm Hg)", "setting": "Vapor pressure; at 20° C.", "value": 0.05, "unit": "mm Hg"}, {"measurement": "Solubility in water at 20° C.", "setting": "[1]", "value": 18, "unit": "%"}]}
{"molecule": "CCCCCCOCCOCCO", "note": "[Hexyl Carbitol, diethylene glycol monohexyl ether]", "values": [{"measurement": "1% HC Solution: % kill at 30 min", "setting": "dust mites", "value": "None"}, {"measurement": "1% HC with 7% DPnP Solution: time to 100% kill", "setting": "dust mites", "value": 26, "unit": "min"}, {"measurement": "1% HC with 7% DpnP at 9.5 pH: % kill at 30 min", "setting": "dust mites", "value": "No kill"}, {"measurement": "8% Solution: time to 100% kill", "setting": "dust mites", "value": 25, "unit": "min"}]}
{"molecule": "COC(C)COC(C)CO", "note": "(stereo not shown) [Dipropylene glycol methyl ether]", "values": [{"measurement": ">50% kill in 30 min.", "setting": "dust mites", "value": "No"}, {"measurement": "Vapor Pressure (mm Hg)", "setting": "Vapor pressure", "value": 0.17, "unit": "mm Hg"}]}
{"molecule": "CCCCOCCOC(C)=O", "note": "[Butyl Cellosolve Acetate, ethylene glycol n-butyl ether acetate]", "values": [{"measurement": "1% HC Solution: time to 100% kill", "setting": "dust mites", "value": 22, "unit": "min"}, {"measurement": "1% HC with 7% DPnP Solution: time to 100% kill", "setting": "dust mites", "value": 18, "unit": "min"}, {"measurement": "1% HC with 7% DpnP at 9.5 pH: time to 100% kill", "setting": "dust mites", "value": 16, "unit": "min"}, {"measurement": "8% Solution: time to 100% kill", "setting": "dust mites", "value": 4, "unit": "min"}, {"measurement": ">50% kill in 30 min.", "setting": "dust mites", "value": "Yes"}, {"measurement": "Vapor Pressure (mm Hg)", "setting": "Vapor pressure; at 20° C.", "value": 0.29, "unit": "mm Hg"}, {"measurement": "Solubility in water at 20° C.", "setting": "[1]", "value": 1, "unit": "%"}]}
{"molecule": "COCC(C)OC(C)=O", "note": "(stereo not shown) [Propylene glycol methyl ether acetate]", "values": [{"measurement": ">50% kill in 30 min.", "setting": "dust mites", "value": "No"}, {"measurement": "Vapor Pressure (mm Hg)", "setting": "Vapor pressure", "value": 3.8, "unit": "mm Hg"}]}
{"molecule": "CC(O)COc1ccccc1", "note": "(stereo not shown) [Dowanol PPh, propylene glycol phenol ether]", "values": [{"measurement": "1% HC Solution: time to 100% kill", "setting": "dust mites", "value": 22, "unit": "min"}, {"measurement": "1% HC with 7% DPnP Solution: time to 100% kill", "setting": "dust mites", "value": 30, "unit": "min"}, {"measurement": "1% HC with 7% DpnP at 9.5 pH: time to 100% kill", "setting": "dust mites", "value": 26, "unit": "min"}, {"measurement": "8% Solution: time to 100% kill", "setting": "dust mites", "value": 7, "unit": "min"}]}
